Experiment: ORAC (OARC-fluorescein) determination of the antioxidant effect, Trolox as standard
Conditions: OARC-fluorescein method; calibration curve with Trolox as standard
Description: The antioxidant effect and the synergy between the individual components were determined according to the OARC-fluorescein method, in which inhibition time and the inhibition degree are reflected in a measured value. The measurements were performed by means of the device Synergy H4 by BioTek Inc., the calculated values were taken from a calibration curve with Trolox used as a standard. The method is described in more detail, for example, in the publications by Prior et. al., J. Agric Food. Chem. 50, pp. 4437-4444 […] and Dovalos et. al, ibid 52, pp. […] (2004). These publications are incorporated into this patent application by reference with regard to the description of the measuring method.

Structure (SMILES) | ORAC value, Measured
O=C(O)/C=C/c1ccc(O)c(O)c1 [Example V1, Caffeic acid] | 21.587
COc1cc(C=CC(=O)O)cc(OC)c1O (stereo in doubt) [Example V2, Sinapinic acid] | 11.459

Reference: US9078872B2, “Antioxidant composition” (Symrise AG, priority 2013, dated 2015)
